Results reported in PubChem BioAssay AID1963852 (Molecular Pharmacology Branch, DTP, NCI, 2024).

Test system: 282377-053-R-J1-PDC complex spheroid viability
Assay: Anticancer human tumor 282377-053-R-J1-PDC patient-derived colon adenocarcinoma cell line growth inhibition [POLQ]
Conditions: for IC50: curve of first compound; for viability, T/C: stronger effect = lower value
How it was run: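 Complex spheroid viability model combining PDC tumour cells with endothelial (HUVEC) and MSC stromal cells. Novobiocin, ART-558 or RP6685 were tested singly and in combination with standard and investigational anticancer drugs. Each was titrated in half-log steps from near clinical Cmax, or from 10 microM where Cmax was unknown.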

[1] = second compound 0.0316 µM, first compound 0.0316 µM
[2] = second compound 0.0316 µM, first compound 0.1 µM
[3] = second compound 0.0316 µM, first compound 0.316 µM
[4] = second compound 0.0316 µM, first compound 1 µM
[5] = second compound 0.0316 µM, first compound 3.16 µM
[6] = second compound 0.0316 µM, first compound 10 µM
[7] = second compound 0.1 µM, first compound 0.0316 µM
[8] = second compound 0.1 µM, first compound 0.1 µM
[9] = second compound 0.1 µM, first compound 0.316 µM
[10] = second compound 0.1 µM, first compound 1 µM
[11] = second compound 0.1 µM, first compound 3.16 µM
[12] = second compound 0.1 µM, first compound 10 µM
[13] = second compound 0.316 µM, first compound 0.0316 µM
[14] = second compound 0.316 µM, first compound 0.1 µM
[15] = second compound 0.316 µM, first compound 0.316 µM
[16] = second compound 0.316 µM, first compound 1 µM
[17] = second compound 0.316 µM, first compound 3.16 µM
[18] = second compound 0.316 µM, first compound 10 µM
[19] = second compound 1 µM, first compound 0.0316 µM
[20] = second compound 1 µM, first compound 0.1 µM
[21] = second compound 1 µM, first compound 0.316 µM
[22] = second compound 1 µM, first compound 1 µM
[23] = second compound 1 µM, first compound 3.16 µM
[24] = second compound 1 µM, first compound 10 µM
[25] = second compound 3.16 µM, first compound 0.0316 µM
[26] = second compound 3.16 µM, first compound 0.1 µM
[27] = second compound 3.16 µM, first compound 0.316 µM
[28] = second compound 3.16 µM, first compound 1 µM
[29] = second compound 3.16 µM, first compound 3.16 µM
[30] = second compound 3.16 µM, first compound 10 µM
[31] = second compound 10 µM, first compound 0.0316 µM
[32] = second compound 10 µM, first compound 0.1 µM
[33] = second compound 10 µM, first compound 0.316 µM
[34] = second compound 10 µM, first compound 1 µM
[35] = second compound 10 µM, first compound 3.16 µM
[36] = second compound 10 µM, first compound 10 µM
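Note: spheroids exposed to compounds for seven days.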
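Throughout, for viability, T/C: 100% = DMSO vehicle control viability.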

C#Cc1c(F)ccc2cc(O)cc(-c3ncc4c(N5CC6CCC(C5)N6)nc(OCC56CCCN5CC(F)C6)nc4c3F)c12 (stereo unspecified) + Cc1cccc(N(C)C(=O)C2C(O)CCN2c2nc(C)cc(C(F)(F)F)c2C#N)c1
IC50 (second compound 0.0316 µM): > 10 µM | IC50 (second compound 0.1 µM): > 10 µM | IC50 (second compound 0.316 µM): > 10 µM | IC50 (second compound 1 µM): > 10 µM | IC50 (second compound 3.16 µM): > 10 µM | IC50 (second compound 10 µM): > 10 µM | viability, T/C [1]: 105% | viability, T/C [2]: 84% | viability, T/C [3]: 77.4% | viability, T/C [4]: 89.2% | viability, T/C [5]: 68.6% | viability, T/C [6]: 86.9% | viability, T/C [7]: 84.1% | viability, T/C [8]: 82.4% | viability, T/C [9]: 112% | viability, T/C [10]: 84.8% | viability, T/C [11]: 106% | viability, T/C [12]: 81% | viability, T/C [13]: 91.9% | viability, T/C [14]: 79.2% | viability, T/C [15]: 105% | viability, T/C [16]: 93.6% | viability, T/C [17]: 85.2% | viability, T/C [18]: 66.2% | viability, T/C [19]: 104% | viability, T/C [20]: 80.4% | viability, T/C [21]: 86% | viability, T/C [22]: 81.3% | viability, T/C [23]: 86.9% | viability, T/C [24]: 70.4% | viability, T/C [25]: 91.9% | viability, T/C [26]: 97.6% | viability, T/C [27]: 73.3% | viability, T/C [28]: 75% | viability, T/C [29]: 77.9% | viability, T/C [30]: 74.3% | viability, T/C [31]: 81.7% | viability, T/C [32]: 82.4% | viability, T/C [33]: 82.3% | viability, T/C [34]: 68.5% | viability, T/C [35]: 70.6% | viability, T/C [36]: 81%

CC1COCCN1c1cc(C2(O)CC3CCC(C2)O3)c2cnn(-c3ccn[nH]3)c2n1 (stereo unspecified) + Cc1cccc(N(C)C(=O)C2C(O)CCN2c2nc(C)cc(C(F)(F)F)c2C#N)c1
IC50 (second compound 0.0316 µM): 0.524 µM | IC50 (second compound 0.1 µM): 0.3 µM | IC50 (second compound 0.316 µM): 0.242 µM | IC50 (second compound 1 µM): 0.489 µM | IC50 (second compound 3.16 µM): 0.23 µM | IC50 (second compound 10 µM): 0.302 µM | viability, T/C [1]: 106% | viability, T/C [2]: 74.9% | viability, T/C [3]: 67.9% | viability, T/C [4]: 33% | viability, T/C [5]: 25.5% | viability, T/C [6]: 16.7% | viability, T/C [7]: 83.8% | viability, T/C [8]: 83.6% | viability, T/C [9]: 48.4% | viability, T/C [10]: 28.1% | viability, T/C [11]: 30.4% | viability, T/C [12]: 21.9% | viability, T/C [13]: 78.9% | viability, T/C [14]: 68.3% | viability, T/C [15]: 44.6% | viability, T/C [16]: 27.3% | viability, T/C [17]: 29.2% | viability, T/C [18]: 19.8% | viability, T/C [19]: 80.7% | viability, T/C [20]: 79.2% | viability, T/C [21]: 54% | viability, T/C [22]: 37.2% | viability, T/C [23]: 27% | viability, T/C [24]: 13.9% | viability, T/C [25]: 78.7% | viability, T/C [26]: 55.2% | viability, T/C [27]: 49% | viability, T/C [28]: 30% | viability, T/C [29]: 31.2% | viability, T/C [30]: 13.6% | viability, T/C [31]: 76% | viability, T/C [32]: 66.1% | viability, T/C [33]: 49.2% | viability, T/C [34]: 30.9% | viability, T/C [35]: 31.6% | viability, T/C [36]: 14.4%

CCc1cc2c(N3CCc4c(cc(Cn5ccnc5)cc4-c4cn(C)nc4C(F)(F)F)C3=O)ccnc2c(OC)n1 + Cc1cccc(N(C)C(=O)C2C(O)CCN2c2nc(C)cc(C(F)(F)F)c2C#N)c1
IC50 (second compound 0.0316 µM): > 10 µM | IC50 (second compound 0.1 µM): > 10 µM | IC50 (second compound 0.316 µM): > 10 µM | IC50 (second compound 1 µM): > 10 µM | IC50 (second compound 3.16 µM): > 10 µM | IC50 (second compound 10 µM): > 10 µM | viability, T/C [1]: 108% | viability, T/C [2]: 94.1% | viability, T/C [3]: 91% | viability, T/C [4]: 110% | viability, T/C [5]: 104% | viability, T/C [6]: 106% | viability, T/C [7]: 93.4% | viability, T/C [8]: 90.9% | viability, T/C [9]: 85.8% | viability, T/C [10]: 91.4% | viability, T/C [11]: 103% | viability, T/C [12]: 121% | viability, T/C [13]: 95% | viability, T/C [14]: 94.9% | viability, T/C [15]: 89.8% | viability, T/C [16]: 86.1% | viability, T/C [17]: 104% | viability, T/C [18]: 93.8% | viability, T/C [19]: 95.2% | viability, T/C [20]: 87.6% | viability, T/C [21]: 104% | viability, T/C [22]: 101% | viability, T/C [23]: 107% | viability, T/C [24]: 109% | viability, T/C [25]: 98.9% | viability, T/C [26]: 91.6% | viability, T/C [27]: 101% | viability, T/C [28]: 99.6% | viability, T/C [29]: 115% | viability, T/C [30]: 116% | viability, T/C [31]: 98.9% | viability, T/C [32]: 95.6% | viability, T/C [33]: 108% | viability, T/C [34]: 96.4% | viability, T/C [35]: 111% | viability, T/C [36]: 124%
